Assay results: PubChem BioAssay AID652239 (Broad Institute, 2013)
Where “and” joins values, the source holds several entries; their conditions need not be identical. Equal values may be shown once. Calls of active or inactive are those of the source. How the calls were made is not given here.

system: V. cholerae BH1578 lux luminescence induction, 6 h; test: V. cholerae BH1578 lux luminescence induction, luxS cqsA deficient, confirmatory dose response (AID 652239); settings: not given

Q: With `O=c1ncn(-c2ccccc2)c2ccccc12` as the compound, how does the AC40 read?
A: > 80 µM (inactive)

Q: With `Cc1cc2cc3c(NC(=O)c4ccco4)nn(C)c3nc2cc1C` as the compound, how does the AC40 read?
A: 42.4 µM

Q: Which AC40 does the source give for `CC(C)(C)COC(=O)CSc1n[nH]c(=O)[nH]c1=O` here?
A: 12.5 µM

Q: For `O=C(Cc1ccc(-c2ccccc2)cc1)NC1CCC1`, which AC40 is on record?
A: 1.26 µM

Q: For `CCc1ccc2cc3c(NC(=O)c4ccco4)nn(C)c3nc2c1`, which AC40 is on record?
A: 58.9 µM

Q: With `Cn1nc(NC(=O)c2ccco2)c2cccnc21` as the compound, how does the AC40 read?
A: 22.2 µM

Q: Which AC40 does the source give for `O=c1ncn(-c2cccc(Cl)c2)c2ccccc12` here?
A: 14.1 µM and 31 µM

Q: With `CCn1nnnc1NCc1ccc(C(C)C)cc1` as the compound, how does the AC40 read?
A: 0.563 µM

Q: For `O=C(Cc1ccc(-c2ccccc2)cc1)NC1COC1`, which AC40 is on record?
A: > 100 µM (inactive)

Q: Which AC40 does the source give for `O=C(Nc1nnc(-c2ccc3c(c2)OCCO3)o1)C1CCCCC1` here?
A: 7.31 µM and 2.33 µM

Q: Which AC40 does the source give for `O=C(Cc1ccc(-c2ccccc2)cc1)N[C@@H]1CCOC1` (racemic) here?
A: 96.9 µM

Q: With `Cn1nc(NC(=O)c2ccco2)c2ccccc21` as the compound, how does the AC40 read?
A: > 100 µM (inactive)

Q: With `Cc1cccc(-n2cnc(=O)c3ccccc32)c1` as the compound, how does the AC40 read?
A: 75.9 µM

Q: Which AC40 does the source give for `O=C(Nc1nnc(-c2cccnc2)o1)C1CCCCC1` here?
A: > 100 µM (inactive)

Q: With `Cc1cc(F)cc2nc3c(cc12)c(NC(=O)c1ccco1)nn3C` as the compound, how does the AC40 read?
A: 89.6 µM

Q: With `Cc1ccc2cc3c(NC(=O)c4cccs4)nn(C)c3nc2c1` as the compound, how does the AC40 read?
A: > 80 µM (inactive)

Q: For `O=c1ncn(-c2cccc(F)c2)c2ccccc12`, which AC40 is on record?
A: 33.8 µM

Q: With `Cc1ccc2cc3c(NC(=O)c4ccco4)nn(C)c3nc2c1` as the compound, how does the AC40 read?
A: 11.6 µM and 16.6 µM

Q: For `O=C(Nc1nnc(-c2ccc3c(c2)OCCO3)o1)C1CCCCCC1`, which AC40 is on record?
A: > 100 µM (inactive)

Q: Which AC40 does the source give for `CCCCCCCCCC(=O)C(O)CC` (stereo not drawn) here?
A: 5.27 µM

Q: Which AC40 does the source give for `O=c1ncn(-c2cc(Cl)cc(Cl)c2)c2ccccc12` here?
A: 4.71 µM

Q: With `Cc1cc(F)c2cc3c(NC(=O)c4ccco4)nn(C)c3nc2c1` as the compound, how does the AC40 read?
A: > 100 µM (inactive)

Q: With `Cn1nc(NC(=O)c2ccco2)c2cc3ccccc3nc21` as the compound, how does the AC40 read?
A: 5.43 µM

Q: Which AC40 does the source give for `CCCCCCCCCC(=O)[C@H](O)CC` (racemic) here?
A: 14.1 µM

Q: With `COc1ccc2cc3c(NC(=O)c4ccco4)nn(C)c3nc2c1` as the compound, how does the AC40 read?
A: 3.82 µM

Q: For `Cc1cc2nc3c(cc2cc1F)c(NC(=O)c1ccco1)nn3C`, which AC40 is on record?
A: 37.2 µM

Q: With `COc1ccccc1-c1nnc(NC(=O)C2CCCCC2)o1` as the compound, how does the AC40 read?
A: > 100 µM (inactive)

system: not listed separately; test: as above; settings: V. cholerae BH1578 lux luminescence induction, 6 h; at 35 µM (top of the series)

Q: With `O=C(CC1CCCCC1)Nc1nnc(-c2ccc3c(c2)CCCC3)o1` as the compound, how does the activation read?
A: 0.052% (inactive)

same assay, conditions: V. cholerae BH1578 lux luminescence induction, 6 h; at 80 µM (top of the series)

Q: Which activation does the source give for `CCC(C)(C)C(=O)Nc1nnc(-c2ccc3c(c2)OCCO3)o1` here?
A: -0.001% (inactive)

Q: Which activation does the source give for `CCc1nc(=O)c2ccccc2n1-c1cccc(Cl)c1` here?
A: 0.079% (inactive)

Q: Which activation does the source give for `O=c1ncn(-c2cccc(Cl)c2)c2cc(Cl)ccc12` here?
A: 0.074% (inactive)

Q: Which activation does the source give for `CCOC(=O)c1ccccc1Nc1cccc(Cl)c1` here?
A: 0.006% (inactive)

Q: With `NC(=O)c1ccccc1Nc1ccccc1` as the compound, how does the activation read?
A: 0.161% (inactive)

Q: With `COC(=O)c1ccccc1Nc1cccc(Cl)c1` as the compound, how does the activation read?
A: 0.61% (inactive)

Q: Which activation does the source give for `O=c1[nH]cnc2ccccc12` here?
A: 0.09% (inactive)

Q: Which activation does the source give for `O=c1ncn(-c2ccc(Cl)cc2)c2ccccc12` here?
A: 0.028% (inactive)

Q: Which activation does the source give for `Cc1nc(=O)c2ccccc2n1-c1cccc(Cl)c1` here?
A: 18.8% (inactive)

Q: Which activation does the source give for `Cc1ccc2cc3c(NC(=O)c4ccoc4)nn(C)c3nc2c1` here?
A: 0.029% (inactive)

Q: For `O=c1ncn(Cc2ccc(Cl)cc2)c2ccccc12`, which activation is on record?
A: 0.451% (inactive)

Q: With `O=C1C(=O)N(Cc2cccc(Cl)c2)c2ccccc21` as the compound, how does the activation read?
A: 0.06% (inactive)

Q: For `Cc1ccc2cc3c(NC(=O)C4CCCC4)nn(C)c3nc2c1`, which activation is on record?
A: 11.2% (inactive)

Q: With `NC(=O)c1ccccc1Nc1cccc(Cl)c1` as the compound, how does the activation read?
A: 0.057% (inactive)

Q: Which activation does the source give for `Cc1ccc2c(=O)ncn(-c3cccc(Cl)c3)c2c1` here?
A: 0.04% (inactive)

Q: Which activation does the source give for `Cc1ccc2c(c1)c(=O)ncn2-c1cccc(Cl)c1` here?
A: 6.29% (inactive)

Q: For `Cc1ccc(-n2cnc(=O)c3ccccc32)cc1Cl`, which activation is on record?
A: 0.07% (inactive)

Q: Which activation does the source give for `O=C(Nc1nnc(-c2ccc3c(c2)CCCC3)o1)C1CCC1` here?
A: 0% (inactive)

Q: Which activation does the source give for `COc1ccc2c(=O)ncn(-c3cccc(Cl)c3)c2c1` here?
A: 0.036% (inactive)

Q: With `O=C(CSc1nc2ccccc2c(=O)[nH]1)NC1CCCCC1` as the compound, how does the activation read?
A: 0.004% (inactive)

Q: With `O=c1ncn(-c2ccccc2Cl)c2ccccc12` as the compound, how does the activation read?
A: 1.17% (inactive)

Q: For `O=c1nc(-c2ccccc2)n(-c2cccc(Cl)c2)c2ccccc12`, which activation is on record?
A: -0.006% (inactive)

Q: Which activation does the source give for `O=C(O)c1ccccc1Nc1cccc(Cl)c1` here?
A: 0.008% (inactive)

Q: With `O=C1C(=O)N(Cc2ccccc2Cl)c2ccccc21` as the compound, how does the activation read?
A: 0.075% (inactive)

Q: With `O=c1ncn(-c2cccc(Cl)c2)c2ccc(Cl)cc12` as the compound, how does the activation read?
A: 8.89% (inactive)

Q: Which activation does the source give for `O=C(CSc1nc2c(c(=O)[nH]1)CCCC2)NC1CCCCC1` here?
A: 0.193% (inactive)

Q: With `O=C(Nc1nnc(-c2cccc(Cl)c2)o1)C1CCCCC1` as the compound, how does the activation read?
A: 0.061% (inactive)

Q: Which activation does the source give for `Cn1cnc(=O)c2ccccc21` here?
A: 0.029% (inactive)

Q: With `O=c1ncn(-c2ccc(Cl)c(Cl)c2)c2ccccc12` as the compound, how does the activation read?
A: 0.032% (inactive)

Q: With `O=C(Nc1nnc(-c2ccc3c(c2)OCCO3)o1)C1CCCC1` as the compound, how does the activation read?
A: 1.99% (inactive)

Q: Which activation does the source give for `O=C(CC1CCCCC1)Nc1nnc(-c2cccnc2)o1` here?
A: -0.004% (inactive)

Q: For `O=c1ncn(-c2ccc(F)c(Cl)c2)c2ccccc12`, which activation is on record?
A: 9.82% (inactive)

Q: With `O=C(Nc1nnc(-c2ccc(Cl)cc2)o1)C1CCCCC1` as the compound, how does the activation read?
A: -0.011% (inactive)

Q: Which activation does the source give for `O=c1nc(Cc2ccccc2)n(-c2cccc(Cl)c2)c2ccccc12` here?
A: 3.07% (inactive)

Q: For `O=c1ncn(-c2cccc(Cl)c2)c2cccc(Cl)c12`, which activation is on record?
A: 0.031% (inactive)

Q: For `COc1cccc(-n2cnc(=O)c3ccccc32)c1`, which activation is on record?
A: 2.59% (inactive)

Q: For `COc1ccc(-n2cnc(=O)c3ccccc32)cc1Cl`, which activation is on record?
A: 0.3% (inactive)

same assay, conditions: V. cholerae BH1578 lux luminescence induction, 6 h; at 100 µM (top of the series)

Q: Which activation does the source give for `Cc1ccc2cc3c(NC(=O)c4ccccn4)nn(C)c3nc2c1` here?
A: -0.001% (inactive)

Q: Which activation does the source give for `O=C(Cc1ccc(-c2ccccc2)cc1)NC1CNC1` here?
A: 0.01% (inactive)

Q: For `COc1ccc(S(=O)(=O)Nc2nnc(-c3ccc4c(c3)OCCO4)o2)cc1`, which activation is on record?
A: 0.003% (inactive)

Q: For `O=C(Nc1nnc(-c2ccc3c(c2)OCCO3)o1)C(F)(F)c1ccccc1`, which activation is on record?
A: -0.004% (inactive)

Q: With `O=C(Nc1nnc(-c2ccc3c(c2)OCCO3)o1)C1CCC1` as the compound, how does the activation read?
A: 0.037% (inactive)

Q: For `Cc1ccc2cc3c(NC(=O)c4ccc(C)o4)nn(C)c3nc2c1`, which activation is on record?
A: 1.77% (inactive)

Q: For `O=C(Nc1nnc(-c2cccnc2)o1)C1CCC1`, which activation is on record?
A: -0.001% (inactive)

Q: With `O=S(=O)(Nc1nnc(-c2ccc3c(c2)OCCO3)o1)c1ccc(Cl)cc1` as the compound, how does the activation read?
A: -0.004% (inactive)

Q: For `Cc1ccc2cc3c(NC(=O)c4cc5ccccc5o4)nn(C)c3nc2c1`, which activation is on record?
A: 0.014% (inactive)

Q: For `CC(C)(C)OC(=O)N1CCC(C(=O)Nc2nnc(-c3ccc4c(c3)OCCO4)o2)CC1`, which activation is on record?
A: 0.011% (inactive)

Q: For `COc1ccc(-c2nnc(NC(=O)C3CCCCC3)o2)cc1`, which activation is on record?
A: 17.9% (inactive)

Q: Which activation does the source give for `Cc1ccc2cc3c(NC(=O)Cc4ccco4)nn(C)c3nc2c1` here?
A: 0.407% (inactive)

Q: For `COc1ccc(-c2nnc(NC(C)=O)o2)cc1`, which activation is on record?
A: 0.028% (inactive)

Q: With `COc1cccc(-c2nnc(NC(=O)C3CCCCC3)o2)c1` as the compound, how does the activation read?
A: -0.002% (inactive)

Q: For `CC(C)c1ccc2cc3c(NC(=O)c4ccco4)nn(C)c3nc2c1`, which activation is on record?
A: 0.153% (inactive)

Q: For `O=C(Nc1nnc(-c2ccc3c(c2)OCCO3)o1)C1CC1`, which activation is on record?
A: 0.001% (inactive)

Q: With `c1ccc(CNc2nnc(-c3ccc4c(c3)OCCO4)o2)cc1` as the compound, how does the activation read?
A: 0.001% (inactive)

Q: Which activation does the source give for `C(=N\c1nnc(-c2ccc3c(c2)OCCO3)o1)/c1ccccc1` here?
A: 0.004% (inactive)

Q: Which activation does the source give for `O=C(Nc1nnc(C2CCCC2)o1)C1CCCCC1` here?
A: -0.003% (inactive)

Q: With `Cn1ccc(NC(=O)c2ccco2)n1` as the compound, how does the activation read?
A: 0.036% (inactive)

Q: For `CN1CCC(C(=O)Nc2nnc(-c3ccc4c(c3)OCCO4)o2)CC1`, which activation is on record?
A: 0.02% (inactive)

Q: With `O=C(Nc1nnc(-c2ccncc2)o1)C1CCC1` as the compound, how does the activation read?
A: 0.028% (inactive)

Q: For `CCn1nnnc1/N=C/c1ccc(N2CCCCC2)cc1`, which activation is on record?
A: 0.106% (inactive)

Q: Which activation does the source give for `CCn1nnnc1NC(C)c1ccc(N2CCCC2)cc1` (stereo not drawn) here?
A: 11.5% (inactive)

Q: For `Cn1nc(NC(=O)c2ccco2)c2cc3ccc(C(C)(C)C)cc3nc21`, which activation is on record?
A: 0% (inactive)

Q: With `O=C(Nc1nnc(-c2ccccc2Cl)o1)C1CCCCC1` as the compound, how does the activation read?
A: 0.003% (inactive)

Q: With `CN(C)/C=N/c1nnc(-c2ccc3c(c2)OCCO3)o1` as the compound, how does the activation read?
A: 0.022% (inactive)

Q: Which activation does the source give for `CCn1nnnc1N` here?
A: -0.013% (inactive)
